Two molecules from ChEMBL document CHEMBL1201862, “PubChem BioAssay data set” (2004) can be followed below.

As usually defined, the IC50 is the concentration that inhibits the measured activity by half. As usually defined, the AC50 is the concentration at which the activity in the assay is half-maximal. What is called Ki is a measure of affinity in units of concentration, obtained from inhibition or displacement.

Calls of active or inactive are those of the source. Where only a bound is given, the exact number is not on record here.

Assay [1] deals with T1, Tyrosine-protein phosphatase non-receptor type 7 (Homo sapiens, UniProt P35236).
T1 sequence (P35236 whole entry): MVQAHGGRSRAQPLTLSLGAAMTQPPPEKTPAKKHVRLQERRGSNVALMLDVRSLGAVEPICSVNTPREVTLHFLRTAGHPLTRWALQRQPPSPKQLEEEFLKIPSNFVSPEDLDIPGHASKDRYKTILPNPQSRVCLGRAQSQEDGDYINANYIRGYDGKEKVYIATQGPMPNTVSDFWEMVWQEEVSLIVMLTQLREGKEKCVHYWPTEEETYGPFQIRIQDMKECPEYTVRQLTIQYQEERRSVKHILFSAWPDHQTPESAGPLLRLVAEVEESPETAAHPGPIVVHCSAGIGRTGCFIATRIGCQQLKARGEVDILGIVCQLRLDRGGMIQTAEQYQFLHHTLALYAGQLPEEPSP
The class given is functional.

Assay [2] addresses Dual specificity protein phosphatase 3 (Homo sapiens, UniProt P51452). Description: VHR1 phosphatase inhibitors, biochemical (AID 1878).
The target in assay [3] is RNA-editing ligase 1, mitochondrial (Trypanosoma brucei brucei, UniProt P86926). As to the kind of experiment: TbREL1 ligase inhibitors, dose response, biochemical, fluorescence, Trypanosoma brucei (AID 1117295). The assay is classed as functional.
Sequence of RNA-editing ligase 1, mitochondrial (P86926 whole entry): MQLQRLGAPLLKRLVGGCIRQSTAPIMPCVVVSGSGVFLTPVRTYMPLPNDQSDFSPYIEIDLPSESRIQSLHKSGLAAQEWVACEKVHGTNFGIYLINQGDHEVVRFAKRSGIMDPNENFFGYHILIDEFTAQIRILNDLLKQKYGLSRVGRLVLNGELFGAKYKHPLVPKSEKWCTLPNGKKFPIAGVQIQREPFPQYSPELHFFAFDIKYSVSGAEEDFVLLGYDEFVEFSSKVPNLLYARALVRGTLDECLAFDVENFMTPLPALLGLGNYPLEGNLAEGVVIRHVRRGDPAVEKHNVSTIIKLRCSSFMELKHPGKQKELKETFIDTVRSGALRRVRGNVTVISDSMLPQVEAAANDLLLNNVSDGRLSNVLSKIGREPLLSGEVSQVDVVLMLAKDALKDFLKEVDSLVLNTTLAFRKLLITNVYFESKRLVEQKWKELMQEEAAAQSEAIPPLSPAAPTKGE
The target in assay [4] is Phospholipase A2 (Homo sapiens, UniProt P04054). The assay is classed as functional.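 Also: confirmatory dose-response counterscreen on phospholipase A2, testing hits that came from an ultra-high-throughput screen for ATG4B inhibitors.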
Sequence of Phospholipase A2 (P04054 whole entry): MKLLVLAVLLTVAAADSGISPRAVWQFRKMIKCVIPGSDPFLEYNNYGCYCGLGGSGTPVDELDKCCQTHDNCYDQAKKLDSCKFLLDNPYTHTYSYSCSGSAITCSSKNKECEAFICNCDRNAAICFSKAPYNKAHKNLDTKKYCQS
Assay [5] can be described thus: MC4R antagonists, dose response, counter-screen for LGR2 antagonist project, cell-based, plate reader, cherry pick (AID 743444).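 Also: transfected HEK 293 cells stimulated with alpha-MSH peptide; potency of inhibitors of the alpha-MSH evoked signal.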 The assay is classed as functional. For orientation: Counterscreens check selectivity or assay interference.
Assay [6] has as its target 1-phosphatidylinositol 4,5-bisphosphate phosphodiesterase beta-3 (Homo sapiens, UniProt Q01970). As to the kind of experiment: Fluorescence-based biochemical high throughput dose response assay to identify inhibitors of phospholipase C isozymes (PLC-B3).
Assay [7] addresses cAMP-dependent protein kinase catalytic subunit alpha (Homo sapiens, UniProt P17612). The class given is functional.
Assay [8] addresses Calcium/calmodulin-dependent protein kinase type 1 (Homo sapiens, UniProt Q14012). The class given is functional.
Assay [9] has as its target LIM domain kinase 1 (Homo sapiens, UniProt P53667). As to the kind of experiment: Navigating the Kinome. Panel member name: LIMK1. The class given is functional.
Assay [10] has as its target T2, Lymphokine-activated killer T-cell-originated protein kinase (Homo sapiens, UniProt Q96KB5).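 Also: value comes from a kinase panel screen in which TOPK was one of the panel members.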
T2 sequence (Q96KB5 whole entry): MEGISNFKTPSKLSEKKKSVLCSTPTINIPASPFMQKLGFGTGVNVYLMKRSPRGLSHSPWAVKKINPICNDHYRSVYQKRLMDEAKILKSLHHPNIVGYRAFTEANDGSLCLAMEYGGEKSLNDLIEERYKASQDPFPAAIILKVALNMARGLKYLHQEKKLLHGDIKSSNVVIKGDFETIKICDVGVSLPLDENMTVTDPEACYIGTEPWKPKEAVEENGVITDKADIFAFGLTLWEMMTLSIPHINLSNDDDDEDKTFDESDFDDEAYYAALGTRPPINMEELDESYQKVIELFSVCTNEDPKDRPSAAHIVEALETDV
The assay is classed as functional.

Assay [11] addresses Mitogen-activated protein kinase 9 (Homo sapiens, UniProt P45984). The assay is classed as functional.
In assay [12] the target is MAP kinase-activated protein kinase 2 (Homo sapiens, UniProt P49137). The class given is functional.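 Also: measured as one member of a kinome-wide kinase panel.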
In assay [13] the target is Mitogen-activated protein kinase 8 (Homo sapiens, UniProt P45983). The assay is classed as functional.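 Also: value comes from one member of a kinome-wide kinase profiling panel.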
In assay [14] the target is Interleukin-1 receptor-associated kinase 4 (Homo sapiens, UniProt Q9NWZ3). The assay is classed as functional.
Sequence of Interleukin-1 receptor-associated kinase 4 (Q9NWZ3 whole entry): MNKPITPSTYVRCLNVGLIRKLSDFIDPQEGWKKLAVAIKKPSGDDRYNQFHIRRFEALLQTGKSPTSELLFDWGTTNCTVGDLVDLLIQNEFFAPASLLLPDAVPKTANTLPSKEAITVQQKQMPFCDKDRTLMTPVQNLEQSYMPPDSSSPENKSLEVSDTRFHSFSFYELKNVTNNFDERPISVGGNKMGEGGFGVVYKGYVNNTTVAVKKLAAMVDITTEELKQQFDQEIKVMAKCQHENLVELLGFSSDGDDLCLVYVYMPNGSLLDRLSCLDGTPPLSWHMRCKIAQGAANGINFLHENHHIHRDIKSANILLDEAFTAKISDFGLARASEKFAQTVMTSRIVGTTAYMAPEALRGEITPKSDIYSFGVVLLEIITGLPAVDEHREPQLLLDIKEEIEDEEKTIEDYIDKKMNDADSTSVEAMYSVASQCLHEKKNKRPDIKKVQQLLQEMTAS
Assay [15] concerns the target Cyclin-dependent kinase 5 (Homo sapiens, UniProt Q00535). The class given is functional.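 Also: CDK5 measured as one member of a kinase profiling panel.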
Assay [16] deals with Serine/threonine-protein kinase DCLK1 (Homo sapiens, UniProt O15075). The class given is functional.
Sequence of Serine/threonine-protein kinase DCLK1 (O15075 whole entry): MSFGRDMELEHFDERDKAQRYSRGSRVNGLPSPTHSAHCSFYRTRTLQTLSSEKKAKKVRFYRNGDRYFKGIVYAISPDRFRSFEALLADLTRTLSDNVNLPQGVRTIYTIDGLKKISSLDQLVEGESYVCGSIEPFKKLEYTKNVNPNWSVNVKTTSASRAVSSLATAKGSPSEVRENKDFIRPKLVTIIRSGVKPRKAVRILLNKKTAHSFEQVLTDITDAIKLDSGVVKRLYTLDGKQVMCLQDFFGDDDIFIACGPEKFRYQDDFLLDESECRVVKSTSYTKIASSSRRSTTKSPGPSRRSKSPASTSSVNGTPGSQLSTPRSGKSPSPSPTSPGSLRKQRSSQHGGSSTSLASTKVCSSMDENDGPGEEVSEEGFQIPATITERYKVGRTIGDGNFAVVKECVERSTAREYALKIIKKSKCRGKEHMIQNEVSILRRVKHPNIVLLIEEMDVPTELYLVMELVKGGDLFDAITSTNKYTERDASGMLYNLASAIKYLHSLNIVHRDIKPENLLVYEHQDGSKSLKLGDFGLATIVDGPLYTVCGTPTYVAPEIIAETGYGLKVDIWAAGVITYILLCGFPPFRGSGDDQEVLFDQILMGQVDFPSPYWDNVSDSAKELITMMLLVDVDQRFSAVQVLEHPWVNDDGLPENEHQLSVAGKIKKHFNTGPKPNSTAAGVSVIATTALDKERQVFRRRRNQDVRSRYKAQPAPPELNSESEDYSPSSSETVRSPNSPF
In assay [17] the target is Misshapen-like kinase 1 (Homo sapiens, UniProt Q8N4C8). The class given is functional.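 Also: kinome panel screen with MINK as the panel member.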
Sequence of Misshapen-like kinase 1 (Q8N4C8 whole entry): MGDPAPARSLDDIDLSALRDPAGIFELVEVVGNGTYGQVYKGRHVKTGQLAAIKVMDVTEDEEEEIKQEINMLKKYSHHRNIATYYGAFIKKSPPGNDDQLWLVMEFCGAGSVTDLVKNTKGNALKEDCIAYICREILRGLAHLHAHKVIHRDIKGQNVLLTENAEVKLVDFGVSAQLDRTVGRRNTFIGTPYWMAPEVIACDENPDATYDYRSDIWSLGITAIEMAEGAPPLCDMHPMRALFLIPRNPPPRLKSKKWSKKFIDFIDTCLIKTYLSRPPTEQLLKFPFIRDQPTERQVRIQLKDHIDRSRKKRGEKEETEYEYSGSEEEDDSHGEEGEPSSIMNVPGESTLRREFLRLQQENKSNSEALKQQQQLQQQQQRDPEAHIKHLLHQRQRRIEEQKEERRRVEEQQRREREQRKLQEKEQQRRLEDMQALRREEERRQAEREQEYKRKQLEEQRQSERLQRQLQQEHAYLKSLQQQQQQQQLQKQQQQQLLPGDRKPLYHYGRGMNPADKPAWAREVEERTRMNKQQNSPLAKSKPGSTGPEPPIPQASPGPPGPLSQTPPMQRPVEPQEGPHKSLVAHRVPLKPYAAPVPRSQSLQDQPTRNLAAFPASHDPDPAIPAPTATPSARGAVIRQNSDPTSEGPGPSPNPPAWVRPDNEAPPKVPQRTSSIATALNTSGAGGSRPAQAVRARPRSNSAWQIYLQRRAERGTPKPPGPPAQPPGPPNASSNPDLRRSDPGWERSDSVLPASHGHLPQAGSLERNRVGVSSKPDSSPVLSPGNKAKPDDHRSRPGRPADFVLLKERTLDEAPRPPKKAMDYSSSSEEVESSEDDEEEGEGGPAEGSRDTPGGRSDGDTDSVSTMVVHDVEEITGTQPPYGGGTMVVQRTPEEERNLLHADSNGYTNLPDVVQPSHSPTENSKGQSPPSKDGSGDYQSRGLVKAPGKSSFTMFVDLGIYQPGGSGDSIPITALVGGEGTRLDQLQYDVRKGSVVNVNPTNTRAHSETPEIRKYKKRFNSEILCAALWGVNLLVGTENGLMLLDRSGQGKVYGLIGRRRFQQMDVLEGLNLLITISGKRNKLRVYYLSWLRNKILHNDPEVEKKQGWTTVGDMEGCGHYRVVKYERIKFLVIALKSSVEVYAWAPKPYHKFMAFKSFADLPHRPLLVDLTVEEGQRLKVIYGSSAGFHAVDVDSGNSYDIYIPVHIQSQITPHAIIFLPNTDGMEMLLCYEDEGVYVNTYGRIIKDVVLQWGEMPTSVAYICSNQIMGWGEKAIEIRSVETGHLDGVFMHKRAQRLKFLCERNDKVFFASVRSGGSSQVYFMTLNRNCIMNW
For assay [18], the target named is Ribosomal protein S6 kinase alpha-3 (Homo sapiens, UniProt P51812). The assay is classed as functional.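 Also: measured within a kinome-wide profiling panel.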
Assay [19] addresses Tyrosine-protein kinase Lck (Homo sapiens, UniProt P06239). The class given is functional.
Assay [20] concerns the target RAC-gamma serine/threonine-protein kinase (Homo sapiens, UniProt Q9Y243). The assay is classed as functional.
The target of assay [21] is Interleukin-1 receptor-associated kinase 1 (Homo sapiens, UniProt P51617). The class given is functional.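 Also: IRAK1 tested as one member of a kinome panel.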
Assay [22] has as its target Serine/threonine-protein kinase PLK1 (Homo sapiens, UniProt P53350). The class given is functional.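 Also: PLK1 measured as one member of a kinome-wide profiling panel.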
The target of assay [23] is Calcium/calmodulin-dependent protein kinase type II subunit delta (Homo sapiens, UniProt Q13557). The assay is classed as functional.
Assay [24] deals with Death-associated protein kinase 3 (Homo sapiens, UniProt O43293). The assay is classed as functional.
The target of assay [25] is Mitogen-activated protein kinase 1 (Homo sapiens, UniProt P28482). The class given is functional.
The target in assay [26] is cAMP-dependent protein kinase catalytic subunit PRKX (Homo sapiens, UniProt P51817). The assay is classed as functional.
The target in assay [27] is T3, Dual specificity tyrosine-phosphorylation-regulated kinase 3 (Homo sapiens, UniProt O43781).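 Also: measured as one member of a broad kinase panel.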
T3 sequence (O43781 whole entry): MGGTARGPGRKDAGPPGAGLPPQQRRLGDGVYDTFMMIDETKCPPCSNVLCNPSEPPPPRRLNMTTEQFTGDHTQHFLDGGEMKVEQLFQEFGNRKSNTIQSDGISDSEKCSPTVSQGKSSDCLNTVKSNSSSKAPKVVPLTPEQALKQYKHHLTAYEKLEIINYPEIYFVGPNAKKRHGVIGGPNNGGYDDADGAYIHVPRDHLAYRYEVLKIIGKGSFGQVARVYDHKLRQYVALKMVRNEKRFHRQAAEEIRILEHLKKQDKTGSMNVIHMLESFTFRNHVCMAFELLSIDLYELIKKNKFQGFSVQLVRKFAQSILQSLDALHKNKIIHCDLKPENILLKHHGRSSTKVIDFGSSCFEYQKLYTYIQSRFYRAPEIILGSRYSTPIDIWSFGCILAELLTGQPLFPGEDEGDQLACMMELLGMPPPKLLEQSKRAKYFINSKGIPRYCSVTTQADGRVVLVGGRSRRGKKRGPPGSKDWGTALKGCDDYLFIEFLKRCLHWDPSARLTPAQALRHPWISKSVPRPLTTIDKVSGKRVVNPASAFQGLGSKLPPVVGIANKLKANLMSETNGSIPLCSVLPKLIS
The assay is classed as functional.

Assay [28] concerns the target Tyrosine-protein kinase Fyn (Homo sapiens, UniProt P06241). The assay is classed as functional.

Sequence of LIM domain kinase 1 (P53667 whole entry, the tested form may be a part): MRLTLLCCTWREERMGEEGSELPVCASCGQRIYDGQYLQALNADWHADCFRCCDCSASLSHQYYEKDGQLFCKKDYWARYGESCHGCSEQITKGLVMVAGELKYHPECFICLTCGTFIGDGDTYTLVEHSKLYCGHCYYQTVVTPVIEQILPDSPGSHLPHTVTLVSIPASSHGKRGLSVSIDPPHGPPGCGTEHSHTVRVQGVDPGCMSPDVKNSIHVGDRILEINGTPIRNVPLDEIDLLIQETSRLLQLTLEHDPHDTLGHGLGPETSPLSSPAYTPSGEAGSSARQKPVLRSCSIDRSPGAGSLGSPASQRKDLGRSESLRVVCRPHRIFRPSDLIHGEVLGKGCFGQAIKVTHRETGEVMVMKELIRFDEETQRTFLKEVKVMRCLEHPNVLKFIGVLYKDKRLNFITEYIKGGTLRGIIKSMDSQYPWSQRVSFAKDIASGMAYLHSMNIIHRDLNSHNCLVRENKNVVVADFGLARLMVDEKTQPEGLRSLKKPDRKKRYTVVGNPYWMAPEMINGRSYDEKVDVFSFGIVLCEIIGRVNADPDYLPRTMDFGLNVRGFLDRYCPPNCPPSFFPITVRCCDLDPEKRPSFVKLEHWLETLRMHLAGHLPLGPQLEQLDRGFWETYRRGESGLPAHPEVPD
Sequence of RAC-gamma serine/threonine-protein kinase (Q9Y243 whole entry): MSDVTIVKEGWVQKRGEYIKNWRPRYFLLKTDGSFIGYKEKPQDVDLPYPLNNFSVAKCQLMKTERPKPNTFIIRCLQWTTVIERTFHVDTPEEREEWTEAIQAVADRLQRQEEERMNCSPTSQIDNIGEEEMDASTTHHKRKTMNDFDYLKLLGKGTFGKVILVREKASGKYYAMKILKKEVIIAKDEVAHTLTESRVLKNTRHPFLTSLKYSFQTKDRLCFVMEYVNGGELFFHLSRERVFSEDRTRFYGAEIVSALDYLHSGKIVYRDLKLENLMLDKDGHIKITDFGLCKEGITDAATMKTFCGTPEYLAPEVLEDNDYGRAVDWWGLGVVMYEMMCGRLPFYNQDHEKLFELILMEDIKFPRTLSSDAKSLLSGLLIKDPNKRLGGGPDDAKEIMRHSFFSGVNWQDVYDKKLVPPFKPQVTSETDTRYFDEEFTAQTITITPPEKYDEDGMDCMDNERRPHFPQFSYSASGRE
Sequence of Dual specificity protein phosphatase 3 (P51452 whole entry): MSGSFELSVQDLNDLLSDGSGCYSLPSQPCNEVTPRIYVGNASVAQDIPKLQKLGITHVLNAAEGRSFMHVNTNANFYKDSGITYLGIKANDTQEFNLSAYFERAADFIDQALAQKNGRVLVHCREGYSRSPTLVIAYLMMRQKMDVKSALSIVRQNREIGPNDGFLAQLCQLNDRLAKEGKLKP
Sequence of Mitogen-activated protein kinase 9 (P45984 whole entry): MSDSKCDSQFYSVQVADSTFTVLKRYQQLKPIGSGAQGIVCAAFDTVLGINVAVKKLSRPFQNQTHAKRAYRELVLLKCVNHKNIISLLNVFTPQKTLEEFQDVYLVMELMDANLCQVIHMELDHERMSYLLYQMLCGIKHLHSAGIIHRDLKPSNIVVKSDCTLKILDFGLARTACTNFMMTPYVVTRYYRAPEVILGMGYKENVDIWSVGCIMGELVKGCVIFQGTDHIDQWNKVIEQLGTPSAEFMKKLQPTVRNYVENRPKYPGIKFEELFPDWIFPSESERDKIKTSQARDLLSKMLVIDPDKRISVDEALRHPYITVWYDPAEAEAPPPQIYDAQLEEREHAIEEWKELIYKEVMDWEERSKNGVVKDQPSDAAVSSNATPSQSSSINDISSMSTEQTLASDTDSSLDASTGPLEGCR

For `CCCc1nc2c(=O)n(C)c(=O)nc-2n(C)n1`, the IC50 in [1] was < 1.24 µM (active); in assay [2] it was 5.55 µM (active); in assay [3], 0.494 µM (active); in [4] it was > 80 µM (inactive); in assay [6], > 122 µM (inactive). Besides, the AC50 in [5] is 4.6 µM (active).
`COc1cc2ncn(-c3cc(OCc4ccccc4C(F)(F)F)c(C(N)=O)s3)c2cc1OC` [GW843682X]: the Ki in assay [7] was > 7.94 µM (inactive); in assay [8], > 7.94 µM (inactive); in assay [9] it was 7.94 µM (active); in assay [10], > 10 µM (inactive); in assay [11] it was > 3.98 µM (inactive); in [12] it was > 7.94 µM (inactive). For the same molecule, the Ki is > 3.16 µM (inactive) in assay [13]; > 10 µM (inactive) in assay [14]; > 10 µM (inactive) in assay [15]; > 10 µM (inactive) in assay [16]; > 7.94 µM (inactive) in assay [17]; 7.94 µM (active) in assay [18]. The Ki in [19] was 2 µM (active); in assay [20], > 10 µM (inactive); in assay [21], > 7.94 µM (inactive); in assay [22], 0.0126 µM (active); in assay [23] it was > 6.31 µM (inactive); in assay [24] it was > 1.26 µM (inactive). Also, the Ki in assay [25] was > 7.94 µM (inactive); in [26] it was 1 µM (active); in assay [27], > 6.31 µM (inactive); in assay [28] it was > 0.794 µM (inactive).
